In brackets after ≈: the same amount, converted by molar mass. Activity calls are given as the source filed them.
Tests used:
[1] = system: Staphylococcus aureus; assay: Antimicrobial activity against methicillin-resistant Staphylococcus aureus CBD-635 assessed as complete inhibition of bacterial growth after overnight incubation; assay type: functional
[2] = system: Staphylococcus aureus; assay: Bactericidal activity against methicillin-resistant Staphylococcus aureus CBD-635 assessed as bacterial killing; assay type: functional
[3] = system: Staphylococcus aureus; assay: Antimicrobial activity against N2,N4-dibenzylquinazoline-2,4-diamine-induced methicillin-resistant Staphylococcus aureus CBD-635 mutant M1 assessed as complete inhibition of bacterial growth after overnight incubation; assay type: functional
[4] = system: Staphylococcus aureus; assay: Antimicrobial activity against N2,N4-dibenzylquinazoline-2,4-diamine-induced methicillin-resistant Staphylococcus aureus CBD-635 mutant M2 assessed as complete inhibition of bacterial growth after overnight incubation; assay type: functional
[5] = system: Staphylococcus aureus; assay: Antimicrobial activity against methicillin-resistant Staphylococcus aureus CBD-635 assessed as complete inhibition of bacterial growth at 5 times MIC after overnight incubation in presence of tetrahydrofolic acid; assay type: functional, organism-based
[6] = system: Staphylococcus aureus; assay: Antimicrobial activity against trimethoprim-resistant Staphylococcus aureus assessed as complete inhibition of bacterial growth after 24 hrs; assay type: functional, organism-based
[7] = system: Staphylococcus aureus; assay: Antimicrobial activity against quinazoline-resistant Staphylococcus aureus assessed as complete inhibition of bacterial growth after 24 hrs; assay type: functional, organism-based
[8] = system: Staphylococcus aureus; assay: Antimicrobial activity against wild type Staphylococcus aureus in presence of sulfamethoxazole; assay type: functional
[9] = system: Staphylococcus aureus; assay: Antimicrobial activity against Staphylococcus aureus infected Galleria mellonella assessed as increase in larvae survival at 5 times MIC; assay type: functional
[10] = system: Staphylococcus aureus; assay: Antimicrobial activity against Staphylococcus aureus infected Galleria mellonella assessed as increase in larvae survival at 10 times MIC; assay type: functional
[11] = system: Staphylococcus aureus; assay: Antimicrobial activity against methicillin-resistant Staphylococcus aureus CBD-635 assessed as zone of inhibition at 5 mg/ml after 24 hrs by disk diffusion assay; assay type: functional; conditions: CBD-635, 24 h, read-out: IZ
[12] = Cytotoxicity against human A549 cells assessed as cell viability recovery up to 459 uM by MTT assay relative to untreated control; assay type: cell-based; conditions: read-out: Activity
[13] = Cytotoxicity against human A549 cells assessed as cell viability recovery at up to 9.2 uM by MTT assay relative to untreated control; assay type: cell-based; conditions: read-out: Activity
[14] = Cytotoxicity against human A549 cells assessed as cell viability recovery at 36.7 to 459 uM by MTT assay relative to untreated control; assay type: cell-based; conditions: read-out: Activity
[15] = system: Staphylococcus; assay: Antibacterial activity against Staphylococcus; assay type: functional
[16] = system: Streptococcus; assay: Antibacterial activity against Streptococcus; assay type: functional
[17] = system: Moraxella catarrhalis; assay: Antimicrobial activity against Moraxella catarrhalis; assay type: functional
[18] = system: Haemophilus influenzae; assay: Antimicrobial activity against Haemophilus influenzae; assay type: functional
[19] = system: Listeria monocytogenes; assay: Antimicrobial activity against Listeria monocytogenes; assay type: functional
[20] = system: Legionella pneumophila; assay: Antimicrobial activity against Legionella pneumophila; assay type: functional
[21] = system: Neisseria sp.; assay: Antimicrobial activity against Neisseria species; assay type: functional
[22] = system: Staphylococcus aureus; assay: Antibacterial activity against methicillin-resistant Staphylococcus aureus SA-1417 infected in mouse assessed as protection of mouse; assay type: functional; conditions: read-out: PD50
[23] = system: Enterococcus; assay: Antibacterial activity against Enterococcus; assay type: functional
[24] = system: Staphylococcus aureus; assay: Antimicrobial activity against N2,N4-dibenzylquinazoline-2,4-diamine-induced methicillin-resistant Staphylococcus aureus CBD-635 mutant M3 assessed as complete inhibition of bacterial growth after overnight incubation; assay type: functional
[25] = system: Staphylococcus aureus; assay: Antimicrobial activity against N2,N4-dibenzylquinazoline-2,4-diamine-induced methicillin-resistant Staphylococcus aureus CBD-635 mutant M4 assessed as complete inhibition of bacterial growth after overnight incubation; assay type: functional
[26] = system: Staphylococcus aureus; assay: Antimicrobial activity against N2,N4-dibenzylquinazoline-2,4-diamine-induced methicillin-resistant Staphylococcus aureus CBD-635 mutant M5 assessed as complete inhibition of bacterial growth after overnight incubation; assay type: functional
[27] = system: Staphylococcus aureus; assay: Antimicrobial activity against N2,N4-dibenzylquinazoline-2,4-diamine-induced methicillin-resistant Staphylococcus aureus CBD-635 mutant M6 assessed as complete inhibition of bacterial growth after overnight incubation; assay type: functional
[28] = system: Staphylococcus aureus; assay: Antimicrobial activity against N2,N4-dibenzylquinazoline-2,4-diamine-induced methicillin-resistant Staphylococcus aureus CBD-635 mutant M7 assessed as complete inhibition of bacterial growth after overnight incubation; assay type: functional
[29] = physchem; conditions: pampa, pH 7.4
[30] = physchem; conditions: pampa, pH 4

For `Clc1ccc(CNc2nc(NCc3ccc(Cl)cc3)c3ccccc3n2)cc1`, the MIC [1] was 2.4 µM (≈ 0.982 µg/mL), the MBC50 [2] was 7.2 µM (≈ 2.95 µg/mL) and the MIC [3] was 2.4 µM (≈ 0.982 µg/mL). The MIC [4] was 2.4 µM (≈ 0.982 µg/mL), the inhibition [5] was “inactive” and the inhibition [6] was “Active”. For the same compound, the inhibition [7] was “Active”, the “fractional inhibitory concentration index (FICI)” value [8] was 0.12 and the Survival [9] was 50%. For the same compound, the Survival [10] was 60%.
For `CCCCNc1nc(NCCCC)c2ccccc2n1`, the zone of inhibition at 5000 µg/mL [11] was 12 mm, the MIC [1] was 0.37 µM (≈ 0.101 µg/mL) and the MBC50 [2] was 0.036 µM (≈ 0.00981 µg/mL). The viability [12] was greater than 50%, the viability [13] was 100% and the viability at up to 459 µM [14] was 58.8%. The inhibition [5] was “inactive”.
In the case of `Cc1c(N2CC[C@@H]([C@H](C)N)C2)c(F)cc2c(=O)[nH]c(=O)n(C3CC3)c12`, the MIC90 [15] is reported as 0.5 µg/mL (≈ 1.44 µM), the MIC90 [16] is reported as 0.06 µg/mL (≈ 0.173 µM) and the MIC90 [17] is reported as 0.5 µg/mL (≈ 1.44 µM). The MIC90 [18] was 0.5 µg/mL (≈ 1.44 µM), the MIC90 [19] was 0.5 µg/mL (≈ 1.44 µM) and the MIC90 [20] was 0.5 µg/mL (≈ 1.44 µM). It also gave an MIC90 [21] of 0.5 µg/mL (≈ 1.44 µM), an ED50 [22] of 2.5 mg/kg and an MIC [23] of 2 µg/mL (≈ 5.77 µM).
`Clc1ccc2c(NCc3ccccc3)nc(NCc3ccccc3)nc2c1` gave an MIC [1] of 27 µM (≈ 10.1 µg/mL), an MIC [3] of 27 µM (≈ 10.1 µg/mL) and an MIC [4] of 27 µM (≈ 10.1 µg/mL). It also gave an MIC [24] of 2.7 µM (≈ 1.01 µg/mL), an MIC [25] of 2.7 µM (≈ 1.01 µg/mL) and an MIC [26] of 2.7 µM (≈ 1.01 µg/mL). The MIC [27] was 2.7 µM (≈ 1.01 µg/mL), the MIC [28] was 2.7 µM (≈ 1.01 µg/mL) and the inhibition [5] was “inactive”.
Work on `COc1ccc(CNc2nc(NCc3ccc(OC)cc3)c3ccccc3n2)cc1` yielded an MIC [1] of 25 µM (≈ 10 µg/mL), an MIC [3] greater than 250 µM and an MIC [4] greater than 250 µM. For the same compound, the MIC [24] was greater than 250 µM, the MIC [25] was greater than 250 µM and the MIC [26] was 125 µM (≈ 50.1 µg/mL). The MIC [27] was 125 µM (≈ 50.1 µg/mL), the MIC [28] was greater than 250 µM and the inhibition [5] was “inactive”.
Work on `CNC(=C[N+](=O)[O-])NCCSCc1ccc(CN(C)C)o1.Cl` [RANITIDINE HYDROCHLORIDE] yielded a Papp [29] of 2.2 ×10⁻⁶ cm/s and a Papp [30] of 5.2 ×10⁻⁶ cm/s.
With `COc1ccc(CNc2nc(NCc3ccccc3)c3ccccc3n2)cc1` the MIC [1] was 0.67 µM (≈ 0.248 µg/mL), the MIC [3] was 0.67 µM (≈ 0.248 µg/mL) and the MIC [4] was 0.67 µM (≈ 0.248 µg/mL). For the same compound, the MIC [24] was 0.67 µM (≈ 0.248 µg/mL), the MIC [25] was 270 µM (≈ 100 µg/mL) and the MIC [26] was 270 µM (≈ 100 µg/mL). The MIC [27] was 270 µM (≈ 100 µg/mL), the MIC [28] was 270 µM (≈ 100 µg/mL) and the inhibition [5] was “inactive”.
Work on `Cc1ccc(CNc2nc(NCc3ccc(C)cc3)c3ccccc3n2)cc1` yielded an MIC [1] of 27 µM (≈ 9.95 µg/mL), an MIC [3] of 27 µM (≈ 9.95 µg/mL) and an MIC [4] of 27 µM (≈ 9.95 µg/mL). It also gave an MIC [24] of 2.7 µM (≈ 0.995 µg/mL), an MIC [25] of 2.7 µM (≈ 0.995 µg/mL) and an MIC [26] of 2.7 µM (≈ 0.995 µg/mL). For the same compound, the MIC [27] was 2.7 µM (≈ 0.995 µg/mL), the MIC [28] was 2.7 µM (≈ 0.995 µg/mL) and the inhibition [5] was “inactive”.

Source: ChEMBL document CHEMBL3259619, “Antibacterial activity of a series of N2,N4-disubstituted quinazoline-2,4-diamines” (J Med Chem, 2014)
